Common to all, as to type: cell-based
One experiment concerns BRK-BaF3 cells. Nature of the experiment: Cell antiproliferative activity assay (CCK-8), BRK-BaF3. The following applies: 72 h, CCK-8, 3 days incubation. Summed up: (§1)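 Growth inhibition over 3 days, with compound serially diluted 3-fold from a 10 µM top concentration. Cells seeded at 100,000 cells/mL; WT-BaF3 medium carried 10% WEHI supernatant as the IL-3 source. Viability read by CCK-8 OD450 after 2-4 h; IC50 from blank-subtracted curve fit.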

The next experiment has as its system WT-BaF3 cells. Nature of the experiment: Cell antiproliferative activity assay (CCK-8), WT-BaF3 (broad-spectrum cytotoxicity). The following applies: 72 h; WT-BaF3 cells (IL-3 supplemented), CCK-8, 3 days incubation. A digest of the protocol: as §1
A further experiment deals with T47D cells. Nature of the experiment: Cell antiproliferative activity assay (CCK-8), T47D. The following applies: Homo sapiens, 72 h, breast cancer cell line T47D, incubation for 3 days. The method, then: BRK-BaF3, WT-BaF3, WEHI cell line, and breast cancer cell line T47D were cultured using RPMI 1640 Basal medium or DMEM (Dulbecco's Modified Eagle Medium) (Shanghai Peiyuan Biotechnology, L220KJ), supplemented with 10% FBS (Gibco, REF 10099-141C) and 1% P/S (Shanghai Peiyuan Biotechnology, S110JV), in an incubator (Thermo 3020) at 37°C with 5% CO2. Cell viability was above 95%. Cells were passaged at a 3:1 ratio every 3-4 days. For WT-BaF3 cells, WEHI cells were first cultured, and their culture supernatant was filtered through a 0.22 µm filter. This supernatant was added at 10% to the regular culture medium to supplement IL-3 required for WT-BaF3 cell proliferation, which served as the culture medium for WT-BaF3. For testing, cells were first collected and counted, then prepared into a cell suspension at 100,000 cells/mL and plated at 100 µL per well. Drug concentrations started from 10 µM and were serially diluted 3:1. After incubation for 3 days, 20 µL of CCK-8 detection reagent (Targetmol C005) was added to each well. After incubation for 2-4 hours, OD450 was measured using a microplate reader (Varioskan LUX, Thermo Scientific). After subtracting the blank background, the curve was fitted and the IC50 was calculated using XLfit software.
In addition, the following table exemplarily lists the IC50 values of some compounds of the present invention against T47D cells.

One may read the IC50 as the concentration at which inhibition is half-maximal. Lower therefore signals inhibition by little substance.

For the molecule `Cc1nn(CCO)cc1Nc1ncc2cc(-c3ccnc(N)c3)cc(C(C)C)c2n1` [I-14], the IC50 was ≤ 20 nM in the experiment with BRK-BaF3 cells, 500 to 2500 nM in the experiment with WT-BaF3 cells and 500 to 1000 nM with T47D cells.
As to `Cc1nn(CCO)cc1Nc1ncc2cc(-c3cccnc3C)cc(C(C)C)c2n1` [I-22], the IC50 with BRK-BaF3 cells was ≤ 20 nM; with WT-BaF3 cells, 500 to 2500 nM; in the experiment with T47D cells, 500 to 1000 nM.
`Cc1nn(CCO)cc1Nc1ncc2cc(-c3cccnc3N)cc(C(C)C)c2n1` [I-27]: the values for the IC50 in the experiment on BRK-BaF3 cells, with WT-BaF3 cells and in the experiment with T47D cells were ≤ 20 nM, 500 to 2500 nM and 500 to 1000 nM, respectively.
Take `Cc1ccncc1-c1cc(C(C)C)c2nc(Nc3cn(CCO)nc3C)ncc2c1` [I-32]: the IC50 was ≤ 20 nM with BRK-BaF3 cells, 500 to 2500 nM with WT-BaF3 cells and ≤ 500 nM in the experiment on T47D cells.
On the same counts, the results for `Cc1nn(CCO)cc1Nc1ncc2cc(-c3cncc(F)c3C)cc(C(C)C)c2n1` [I-36] are ≤ 20 nM, 500 to 2500 nM and ≤ 500 nM.
Consider `Cc1ccc(-c2cc(C(C)C)c3nc(Nc4cn(CCO)nc4C)ncc3c2)c(F)n1` [I-39], for which the IC50 in the experiment with BRK-BaF3 cells was 20 to 100 nM; with WT-BaF3 cells, 100 to 500 nM; in the experiment on T47D cells, ≤ 500 nM.
The matching figures for `Cc1nn(CCO)cc1Nc1ncc2cc(-c3cc(F)cnc3C)cc(C(C)C)c2n1` [I-41]: ≤ 20 nM, > 2500 nM and 500 to 1000 nM.
On the same counts, the results for `Cc1ccnc(F)c1-c1cc(C(C)C)c2nc(Nc3cn(CCO)nc3C)ncc2c1` [I-46] are ≤ 20 nM, 500 to 2500 nM and ≤ 500 nM.
For `Cc1nn(CCO)cc1Nc1ncc2cc(-c3c(F)ccnc3N)cc(C(C)C)c2n1` [I-48], the IC50 in the experiment with BRK-BaF3 cells is ≤ 20 nM; in the experiment on WT-BaF3 cells it was > 2500 nM; with T47D cells, 500 to 1000 nM.
On the same counts, the results for `Cc1nn(CCCO)cc1Nc1ncc2cc(-c3cccnc3)cc(C(C)C)c2n1` [I-53] are ≤ 20 nM, 500 to 2500 nM and ≤ 500 nM.
On the same counts, the results for `CC(C)c1cc(-c2cccnc2)cc2cnc(Nc3cn(CCO)nc3C(F)F)nc12` [I-54] are ≤ 20 nM, 500 to 2500 nM and 500 to 1000 nM.
Regarding `CC(C)c1cc(-c2cccnc2)cc2cnc(Nc3cn(CCO)nc3Cl)nc12` [I-55], the IC50 in the experiment on BRK-BaF3 cells is ≤ 20 nM; in the experiment with WT-BaF3 cells, 500 to 2500 nM; with T47D cells, ≤ 500 nM.
Take `Cc1ccncc1-c1cc(C(C)C)c2nc(Nc3cn(CC(C)(C)O)nc3C)ncc2c1` [I-56]: the IC50 was ≤ 20 nM in the experiment with BRK-BaF3 cells, 500 to 2500 nM in the experiment on WT-BaF3 cells and ≤ 500 nM in the experiment on T47D cells.
The matching figures for `Cc1nn(CC(C)(C)O)cc1Nc1ncc2cc(-c3cccnc3C)cc(C(C)C)c2n1` [I-57]: ≤ 20 nM, 100 to 500 nM and 500 to 1000 nM.
The matching figures for `Cc1ccncc1-c1cc(C(C)C)c2nc(Nc3cnn(CCO)c3C)ncc2c1` [I-59]: ≤ 20 nM, > 2500 nM and ≤ 500 nM.
The matching figures for `Cc1nccnc1-c1cc(C(C)C)c2nc(Nc3cn(CCO)nc3Cl)ncc2c1` [I-98]: ≤ 20 nM, 500 to 2500 nM and 500 to 1000 nM.
In the case of `Cc1ccnnc1-c1cc(C2CC2)c2nc(Nc3cn(CCO)nc3C)ncc2c1` [I-119], the IC50 was ≤ 20 nM in the experiment with BRK-BaF3 cells, 500 to 2500 nM with WT-BaF3 cells and 500 to 1000 nM in the experiment on T47D cells.
For `COc1ncncc1-c1cc(C(C)C)c2nc(Nc3cn(CCO)nc3C)ncc2c1` [I-125], the IC50 with BRK-BaF3 cells was ≤ 20 nM; in the experiment with WT-BaF3 cells it was > 2500 nM; in the experiment with T47D cells, 500 to 1000 nM.
On the same counts, the results for `Cc1ncnc(C)c1-c1cc(C(C)C)c2nc(Nc3cnn(CCO)c3)ncc2c1` [I-140] are ≤ 20 nM, 500 to 2500 nM and 500 to 1000 nM.
On to `Cc1nn(CCO)cc1Nc1ncc2cc(-c3cncnc3C)cc(C3CC3)c2n1` [I-146], for which the IC50 is ≤ 20 nM in the experiment with BRK-BaF3 cells, 500 to 2500 nM with WT-BaF3 cells and 500 to 1000 nM in the experiment with T47D cells.
The matching figures for `Cc1nn(CCO)cc1Nc1ncc2cc(-c3c(C)ncnc3C)cc(C3CC3)c2n1` [I-147]: ≤ 20 nM, 500 to 2500 nM and 500 to 1000 nM.
On the same counts, the results for `Cc1nn(CCO)cc1Nc1ncc2cc(-c3cc(O)ccc3F)cc(C(C)C)c2n1` [I-160] are ≤ 20 nM, 100 to 500 nM and ≤ 500 nM.

For the origin of these results see patent EP4803513A1, “SUBSTITUTED QUINAZOLINE COMPOUND, PREPARATION METHOD THEREFOR, PHARMACEUTICAL COMBINATION THEREOF, AND USE THEREOF” (Hongyun Biotech Co., Ltd., priority 2023, dated 2025).
